Data set [1] relates to Neutrophil. The data set can be described thus: Inhibition of fMLF/CB-induced human Neutrophil activation assessed as reduction in elastase release using MeO-Suc-Ala-Ala-Pro-Val-pnitroanilide as substrate incubated for 5 mins. It counts as functional, cell-based.
Data set [2] has as its system Neutrophil. The data set is described as follows: Inhibition of fMLF/CB-induced human Neutrophil activation assessed as reduction in superoxide anion generation preincubated with compound for 2 mins prior to CB induction for 3 mins followed by fMLF addition by spectrophotometric analysis. The class given is functional, cell-based.
For data set [3], the system named is Neutrophil. The data set can be described thus: Inhibition of fMLF/CB-induced human Neutrophil activation assessed as reduction in superoxide anion generation at 10 uM preincubated with compound for 2 mins prior to CB induction for 3 mins followed by fMLF addition by spectrophotometric analysis relative to control. It counts as functional. The settings on record: 5 min.

Data set [4] has as its system Neutrophil. The data set can be described thus: Inhibition of fMLF/CB-induced human Neutrophil activation assessed as reduction in elastase release at 10 uM using MeO-Suc-Ala-Ala-Pro-Val-pnitroanilide as substrate incubated for 5 mins relative to control. It counts as functional.
In data set [5] the target is Phosphodiesterase 4 (Homo sapiens) (UniProt P27815+Q08499+Q07343+Q08493). The data set is described as follows: Inhibition of PDE4 (unknown origin) at 50 uM incubated for 1 hr by scintillation proximity assay relative to control. It counts as protein assay. Background: SPA uses beads or plates that emit light when radiolabelled molecules are held near them.
Data set [6] is described as follows: AUC (0 to infinity) in C57BL/6 mouse at 5 mg/kg, iv measured upto 360 mins by HPLC analysis. The class given is ADME, organism-based. As to conditions: in vivo.
The subject of data set [7] is Neutrophil. The data set can be described thus: Inhibition of fMLF/CB-induced human Neutrophil activation assessed as reduction in superoxide anion generation at 1 to 1000 nM preincubated with compound for 2 mins prior to CB induction for 3 mins followed by fMLF addition in presence of KT5720 by spectrophotometric analysis. The class given is functional, cell-based. As to conditions: dose 1-1000 nM, time 5.0 min.

Data set [8] deals with 3',5'-cyclic-AMP phosphodiesterase 4B (Homo sapiens) (UniProt Q07343). The data set can be described thus: Inhibition of human recombinant PDE4B1 at 10 uM using […] as substrate preincubated with compound for 15 mins followed by substrate addition and measured after 30 mins by spectrofluorimetric analysis relative to control. The settings on record: time 45.0 min.
Chain of 3',5'-cyclic-AMP phosphodiesterase 4B (Homo sapiens) (Q07343 whole entry): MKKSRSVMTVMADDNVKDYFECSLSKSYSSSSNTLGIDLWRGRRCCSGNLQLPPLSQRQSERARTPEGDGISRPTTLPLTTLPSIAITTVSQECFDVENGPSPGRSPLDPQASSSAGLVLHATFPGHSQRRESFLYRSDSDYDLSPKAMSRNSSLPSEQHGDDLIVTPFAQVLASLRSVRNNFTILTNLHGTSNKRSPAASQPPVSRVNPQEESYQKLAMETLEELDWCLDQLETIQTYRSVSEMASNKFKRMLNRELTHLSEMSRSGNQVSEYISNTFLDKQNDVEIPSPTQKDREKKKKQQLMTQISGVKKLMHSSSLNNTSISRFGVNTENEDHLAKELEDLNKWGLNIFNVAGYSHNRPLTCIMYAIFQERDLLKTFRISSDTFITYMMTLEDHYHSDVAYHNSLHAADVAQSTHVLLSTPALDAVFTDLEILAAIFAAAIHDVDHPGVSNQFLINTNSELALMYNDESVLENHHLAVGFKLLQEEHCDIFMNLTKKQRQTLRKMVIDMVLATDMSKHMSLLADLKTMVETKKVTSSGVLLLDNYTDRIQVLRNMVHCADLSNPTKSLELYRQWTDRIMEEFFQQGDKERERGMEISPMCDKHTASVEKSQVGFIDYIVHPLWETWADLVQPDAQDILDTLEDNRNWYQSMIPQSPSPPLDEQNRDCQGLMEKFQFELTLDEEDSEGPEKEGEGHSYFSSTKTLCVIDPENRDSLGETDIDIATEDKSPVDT
Data set [9] deals with 3',5'-cyclic-AMP phosphodiesterase 4D (Homo sapiens) (UniProt Q08499). The data set is described as follows: Inhibition of human recombinant PDE4D2 at 10 uM using […] as substrate preincubated with compound for 15 mins followed by substrate addition and measured after 30 mins by spectrofluorimetric analysis relative to control. The settings on record: time 45.0 min.
Chain of 3',5'-cyclic-AMP phosphodiesterase 4D (Homo sapiens) (Q08499 whole entry): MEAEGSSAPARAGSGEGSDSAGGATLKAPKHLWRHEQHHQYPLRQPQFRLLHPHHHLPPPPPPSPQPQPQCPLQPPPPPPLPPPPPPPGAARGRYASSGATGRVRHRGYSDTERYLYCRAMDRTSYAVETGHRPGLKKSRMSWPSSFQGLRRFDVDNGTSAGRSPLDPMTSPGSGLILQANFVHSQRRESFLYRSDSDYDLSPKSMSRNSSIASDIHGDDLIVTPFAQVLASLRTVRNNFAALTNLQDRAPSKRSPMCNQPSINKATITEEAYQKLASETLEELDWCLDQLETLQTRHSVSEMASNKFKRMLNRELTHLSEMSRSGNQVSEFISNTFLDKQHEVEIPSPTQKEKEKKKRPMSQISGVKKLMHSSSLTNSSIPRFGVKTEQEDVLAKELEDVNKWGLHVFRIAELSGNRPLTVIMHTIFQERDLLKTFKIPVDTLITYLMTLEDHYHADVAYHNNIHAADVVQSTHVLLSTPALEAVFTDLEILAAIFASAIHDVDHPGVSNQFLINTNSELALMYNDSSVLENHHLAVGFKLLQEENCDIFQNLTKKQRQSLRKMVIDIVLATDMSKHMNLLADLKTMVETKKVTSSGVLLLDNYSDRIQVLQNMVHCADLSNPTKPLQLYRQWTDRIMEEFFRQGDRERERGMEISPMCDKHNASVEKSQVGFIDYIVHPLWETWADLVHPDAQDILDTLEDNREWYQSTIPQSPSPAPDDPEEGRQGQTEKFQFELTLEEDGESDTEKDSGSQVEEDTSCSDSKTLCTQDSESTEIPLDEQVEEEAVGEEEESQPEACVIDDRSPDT
The nature of data set [10]: Clearance in C57BL/6 mouse at 5 mg/kg, iv measured upto 360 mins by HPLC analysis. As to conditions: in vivo. It counts as ADME, organism-based.
Data set [11] is described as follows: Apparent volume of distribution in C57BL/6 mouse at 5 mg/kg, iv measured upto 360 mins by HPLC analysis. It counts as ADME, organism-based. The settings on record: in vivo, 6 h.
A short description of data set [12]: Half life in C57BL/6 mouse at 5 mg/kg, iv measured upto 360 mins by HPLC analysis. It counts as ADME, organism-based. As to conditions: in vivo.

The source made the active and inactive calls. A value given as a limit tells only on which side of the number the result lay.

Take `COc1ccc(-c2nn(Cc3ccccc3)cc2-c2ccccc2)cc1OC`: the IC50 – broadly, the concentration at which inhibition is half-maximal – in the data set on Neutrophil [1] is above 10 µM; with Neutrophil [2], 218 µM. Besides, the figures for the inhibition at 10 µM with Neutrophil [3] and in the data set with Neutrophil [4] were 68.2% and 7.02%, respectively.

For `COc1ccc(-c2nn(Cc3cccc(F)c3)cc2-c2ccccc2)cc1OC`, the IC50 in the data set on Neutrophil [1] and with Neutrophil [2] was above 10 µM throughout. Further, the inhibition (as a rule, the relative decrease from the control value, in per cent) at 10 µM was 33.7% in the data set on Neutrophil [3] and 16% in the data set with Neutrophil [4].

Regarding `Fc1cccc(Cn2nc(-c3ccco3)cc2-c2ccccc2)c1`, the figures for the IC50 in the data set with Neutrophil [1] and with Neutrophil [2] were 3.57 µM and 0.0459 µM, respectively. In addition, the inhibition at 10 µM in the data set with Neutrophil [3] is 94.6%; with Neutrophil [4] it was 76.6%.

In the case of `O=C(O)c1ccc(-c2nn(CC3CCCCC3)c3ccccc23)o1`, the concentration for half-maximal inhibition (IC50) in the data set with Neutrophil [1] is above 10 µM; in the data set with Neutrophil [2], 4.93 µM. Moreover, the inhibition at 10 µM stood at 73.2% in the data set with Neutrophil [3] and 43.6% in the data set on Neutrophil [4].

Turning to `O=C(O)c1ccc(-c2nn(Cc3ccccc3)c3ccccc23)o1`, the half-inhibitory concentration (IC50) in the data set on Neutrophil [1] and in the data set with Neutrophil [2] was above 10 µM each time. Also, the inhibition at 10 µM was found to be 43.4% with Neutrophil [3] and 16.8% in the data set on Neutrophil [4].

In the case of `COc1ccc(-c2nn(CC3CCCCC3)cc2-c2ccccc2)cc1OC`, the IC50 in the data set with Neutrophil [1] and with Neutrophil [2] was above 10 µM each time. For the same compound, the inhibition at 10 µM in the data set on Neutrophil [3] stood at 43.9%; with Neutrophil [4] it was 19.1%.

Turning to `COc1ccccc1C(=O)n1nc(-c2ccco2)c2ccccc21`, the IC50 in the data set on Neutrophil [1] and with Neutrophil [2] was above 10 µM throughout. Further, the inhibition at 10 µM in the data set on Neutrophil [3] was 14.5%; with Neutrophil [4], -0.2%.

On to `c1ccc(-c2cn(CC3CCCCC3)nc2-c2ccco2)cc1`, for which the IC50 in the data set with Neutrophil [1] came to 1.19 µM; in the data set on Neutrophil [2], 833 µM. For the same compound, the inhibition at 10 µM is 104% in the data set with Neutrophil [3] and 109% with Neutrophil [4].

As for `CCC(=O)c1ccc(-c2nn(Cc3ccccc3F)c3ccccc23)o1`, the IC50 was 2.54 µM in the data set with Neutrophil [1] and 0.18 µM in the data set on Neutrophil [2]. In addition, the results for the inhibition at 10 µM with Neutrophil [3] and in the data set with Neutrophil [4] were 106% and 93.4%, respectively.

For the compound `COc1cccc(Cn2nc(-c3ccccc3)cc2-c2ccccc2)c1`, the IC50 in the data set with Neutrophil [1] and in the data set on Neutrophil [2] was above 10 µM in each case. Further, the figures for the inhibition at 10 µM in the data set on Neutrophil [3] and with Neutrophil [4] were 8.5% and 1.65%, respectively.

For the compound `c1ccc(Cn2nc(-c3ccco3)c3ccccc32)cc1`, the half-inhibitory concentration (IC50) in the data set with Neutrophil [1] is above 10 µM; in the data set with Neutrophil [2], 2.32 µM. In addition, the inhibition at 10 µM with Neutrophil [3] came out at 71.8%; in the data set on Neutrophil [4] it was 20.4%.

For `O=Cc1ccc(-c2nn(CC3CCCCC3)c3ccccc23)o1`, the IC50 amounted to 1.18 µM in the data set on Neutrophil [1] and 0.17 µM in the data set on Neutrophil [2]. The inhibition at 10 µM amounted to 63.4% with Neutrophil [3] and 102% in the data set with Neutrophil [4].

Consider `OCc1ccc(-c2nn(Cc3ccccc3)c3ccccc23)o1`, for which the IC50 in the data set with Neutrophil [1] and with Neutrophil [2] was above 10 µM in each case. In addition, in [5], the inhibition is 60%. For the same compound, the results for the inhibition at 10 µM in the data set with Neutrophil [3] and in the data set with Neutrophil [4] were 12.9% and -2.64%, respectively.

`c1coc(-c2nn(CC3CCCCC3)c3ccccc23)c1`: the results for the IC50 in the data set with Neutrophil [1] and in the data set with Neutrophil [2] were 0.26 µM and 0.18 µM, respectively. Also, the inhibition at 10 µM in the data set with Neutrophil [3] was 87.8%; in the data set on Neutrophil [4] it was 73.9%.

For the compound `Fc1ccccc1Cn1nc(-c2ccco2)cc1-c1ccccc1`, in data set [6], the AUC(0-inf) – broadly, total exposure, with the tail of the curve extrapolated – is 962 ng·h/mL. Besides, the values for the IC50 with Neutrophil [1] and with Neutrophil [2] were above 10 µM and 0.00906 µM, respectively. Further, the inhibition entry in the data set on Neutrophil [7] was “Active”. The inhibition in [8] is 83%; in data set [9], 85%. Moreover, the results for the inhibition at 10 µM in the data set with Neutrophil [3] and in the data set with Neutrophil [4] were 66.5% and 37%, respectively. In addition, the clearance (usually the volume of plasma or blood freed of the substance per unit of time) in data set [10] was 1.97 mL/min. The Vz in data set [11] worked out at 225 mL. The half-life (usually the time needed for the level to fall by half in the phase considered) in data set [12] stood at 1.32 h.

As for `c1ccc(-c2cn(CC3CCCCC3)nc2-c2ccccc2)cc1`, the IC50 in the data set with Neutrophil [1] and in the data set with Neutrophil [2] was above 10 µM each time. The inhibition at 10 µM in the data set on Neutrophil [3] stood at 6.73%; in the data set on Neutrophil [4], 8.93%.

Take `c1ccc(Cn2nc(-c3ccccc3)cc2-c2ccccc2)cc1`: the IC50 is above 10 µM in the data set with Neutrophil [1] and 2.83 µM in the data set on Neutrophil [2]. For the same compound, the inhibition at 10 µM with Neutrophil [3] came to 63.6%; with Neutrophil [4], 36.8%.

As to `Fc1ccccc1Cn1nc(-c2ccco2)c2ccccc21`, the figures for the IC50 in the data set on Neutrophil [1] and with Neutrophil [2] were 2.11 µM and 1.05 µM, respectively. In addition, the inhibition at 10 µM in the data set on Neutrophil [3] was 100%; in the data set with Neutrophil [4], 94.5%.

As for `CCCCCCCn1cc(-c2ccccc2)c(-c2ccccc2)n1`, the 50% inhibitory concentration (IC50) in the data set with Neutrophil [1] and in the data set with Neutrophil [2] was above 10 µM in each case. The inhibition at 10 µM with Neutrophil [3] came to 0.72%; with Neutrophil [4] it was 16.9%.

Consider `Fc1ccccc1Cn1nc(-c2cccs2)cc1-c1ccccc1`, for which the AUC(0-inf) in data set [6] was 900 ng·h/mL. In addition, the IC50 in the data set with Neutrophil [1] is above 10 µM; in the data set with Neutrophil [2], 0.0133 µM. The inhibition entry in the data set with Neutrophil [7] is “Active”. In addition, the figures for the inhibition at 10 µM in the data set with Neutrophil [3] and in the data set with Neutrophil [4] were 72.2% and 38.2%, respectively. In data set [10], the clearance was 1.85 mL/min. In addition, in data set [11], the Vz stood at 165 mL. The half-life in data set [12] turned out to be 1.03 h.

With `COc1cccc(Cn2nc(-c3cccs3)cc2-c2ccccc2)c1`, the IC50 was above 10 µM with Neutrophil [1] and 1.76 µM in the data set on Neutrophil [2]. Further, the inhibition at 10 µM with Neutrophil [3] was 63.3%; in the data set on Neutrophil [4] it was 32.8%.

Regarding `c1ccc(Cn2cc(-c3ccccc3)c(-c3cccs3)n2)cc1`, the 50% inhibitory concentration (IC50) with Neutrophil [1] was above 10 µM; with Neutrophil [2] it was 145 µM. Also, the inhibition at 10 µM in the data set on Neutrophil [3] was 65.7%; in the data set with Neutrophil [4], 23.5%.
